How the values were obtained:
LT-CFCs = experiment: Serial transfer of LT-CFC-derived type I colonies in soft agar; type: cell-based, murine
Experimental: Type I colonies were isolated from soft agar with either control medium or medium containing Xs (data for 1 mM and 3 mM Xs are combined). Colonies were dispersed and then plated in a single 6-well in soft agar developed with culture medium containing the respective concentration of Xs. After 1-3 weeks, the number and type of secondary colonies were scored by phase microscopy. Bars indicate the mean percent of positive wells for each secondary colony type. Data for the control condition are the means of two independent experiments; data for Xs condition are the means of four independent experiments. We next evaluated whether LT-CFCs which produced type I colonies could be propagated in soft agar. Pasteur pipettes were used to isolate type I colonies from soft agar developed in either control medium or medium containing Xs. Isolated colonies were dispersed and their cells replated in their entirety in a single well of a 6-well plate in soft agar developed with the respective Xs concentration.

bone marrow cells = experiment: Non-adherent cell production in long-term bone marrow culture; type: cell-based, mice; conditions: Xs 1 mM, medium with 25% horse serum
Experimental: The non-adherent cell production rate (CPR) is defined as the total number of non-adherent cells produced in a single long-term culture normalized to days of culture (mean=95 days; range=66 to 132) and input cell number (range=5×10^6 to 20×10^6 cells). To develop long-term bone marrow cultures, freshly isolated bone marrow cells from tibia and femurs of 7-12 week-old female C57BL/6J mice were grown in culture medium supplemented with 25% horse serum.

[1] = test system: adherent cells from long-term bone marrow cultures; experiment: Soft agar colony formation by adherent cells from long-term bone marrow cultures; type: cell-based, mice; conditions: adherent cells from cultures with 0.4 to 1.0 mM Xs
From the text: Because of the difficulties anticipated in cloning Xs-dependent cells from heterogenous long-term bone marrow cultures, we decided to adopt a soft agar culture strategy. It is well known that hematopoietic progenitor cells will form colonies when grown in semi-solid medium (Dexter et al., 1984). […] Instead, it simply reflects their natural ability to divide without anchorage. In many bone marrow cell studies, conditions are selected to induce bone marrow cell differentiation. Methyl-cellulose or soft agar supplemented with lineage-promoting growth factors are widely used experimental systems (Dexter et al., 1984). For ideal SACK, we wished to minimize stimuli for differentiation. Therefore, we used agar developed in routine horse serum-supplemented long-term culture medium, without any additional growth factor source, as the gel medium for our studies. We followed procedures developed for detecting anchorage-independent growth of transformed tumor cells.
Our plan was to evaluate SACK effects on soft agar colonies derived from fresh bone marrow. Therefore, we wished to relate the morphology of colonies that arose from fresh bone marrow cells to those that arose from LT-CFCs in long-term cultures. […] After 9 weeks of culture, when adherent cells were evaluated after washing and then removal with half-strength trypsin, only type II colonies were detected (frequency=19×10^−5). […]

[2] = test system: freshly harvested murine bone marrow cells; experiment: Bone marrow colony formation in soft agar (fresh bone marrow); type: cell-based
Experimental: The following numbers of freshly harvested murine bone marrow cells were plated in soft agar in replicates of 6 in 6-well plates: 1×10^5, 5×10^5, or 1×10^6. After 1-3 weeks, type I, II, and III colonies (see FIG. 2 for examples) were enumerated by phase microscopy.
Because of the difficulties anticipated in cloning Xs-dependent cells from heterogenous long-term bone marrow cultures, we decided to adopt a soft agar culture strategy. It is well known that hematopoietic progenitor cells will form colonies when grown in semi-solid medium (Dexter et al., 1984). […] In many bone marrow cell studies, conditions are selected to induce bone marrow cell differentiation. Methyl-cellulose or soft agar supplemented with lineage-promoting growth factors are widely used experimental systems (Dexter et al., 1984). For ideal SACK, we wished to minimize stimuli for differentiation. Therefore, we used agar developed in routine horse serum-supplemented long-term culture medium, without any additional growth factor source, as the gel medium for our studies. We followed procedures developed for detecting anchorage-independent growth of transformed tumor cells.
Given their associated HSC activity, LT-CFCs are predicted to divide with asymmetric cell kinetics. We evaluated whether Xs would increase the frequency of LT-CFC type I colonies in soft agar. Freshly prepared bone marrow cells were plated in soft agar developed in either control medium or medium containing 1 mM or 3 mM Xs.

[3] = test system: p53-inducible model cells; conditions: p53-inducible model cells (Sherley et al. 1995a, Liu et al. 1998a); cited from earlier work
Xs-D8 cells = experiment: Daughter pair analysis (DPA), BrdU incorporation; type: cell-based, rat; conditions: addition of Xs; n=58 pairs; 16% in absence of Xs
Experimental: The assay is called a “daughter pair analysis” (DPA). To perform the DPA, cells are plated in Xs-containing medium at microcolony density (approximately one cell per 40× microscope field). After allowing 4 to 5 hours for cell adherence, asymmetric cell kinetics are induced by changing to Xs-free medium. After about 16 hours to allow cell divisions to produce “daughter pairs”, the cells are labeled for 4 hours with the thymidine analogue bromodeoxyuridine (BrdU). The cells are then fixed and evaluated for BrdU incorporation by in situ immunofluorescence.
When grown in the absence of Xs, 84% of Xs-D8 BrdU(+) daughter pairs show a single BrdU(+) daughter (n=76 pairs; e.g., FIGS. 3C,F). The BrdU(+) daughter is the cycling stem cell daughter, whereas the BrdU(−) daughter corresponds to a non-cycling transit cell daughter that can undergo differentiation in peptide hydrogels (data not shown). Consistent with its ability to shift cells from asymmetric to exponential kinetics, addition of Xs increases the fraction of double-BrdU(+) Xs-D8 daughter pairs from 16% to 76% (n=58 pairs; e.g., FIGS. 3B,E). […] For 70 scored daughter pairs in Xs-free medium, the frequency of Xs-F1 symmetric pairs was 5 times the frequency of Xs-D8 symmetric pairs.

O=c1[nH]c(=O)c2ncn([C@@H]3O[C@H](CO)[C@@H](O)[C@H]3O)c2[nH]1 [Xs, xanthosine]
Occurrence of multiple secondary colonies, more common in the presence of Xs (LT-CFCs; presence vs absence of Xs): 5 times
Cases of multiple secondary colonies that occurred in Xs-containing medium (LT-CFCs; secondary colonies from type I colonies, 1 mM and 3 mM Xs combined): Eighty-three
Type I colonies more frequent than type II and III colonies (LT-CFCs; secondary colonies in Xs-containing soft agar): 50%
Efficiency of giving rise to type I secondary colonies versus control type I colonies (LT-CFCs; type I colonies grown in Xs): 4 fold
Increase in the rate of production of non-adherent, differentiated cells (bone marrow cells): 80%
More type I colonies than control cultures (average) [1]: 35%
Increase in the frequency of type I colonies ([2]; 1 mM Xs, density of 1×10^5 bone marrow cells per 6-well): 1.5 fold
Mean fold increase in the frequency of type I colonies ([2]; 1 mM Xs, inputs of 5×10^5 or 1×10^6 cells): 5.3 fold
Mean fold increase in type I colony formation ([2]; Xs 1 mM and 3 mM, range 1.2 to 6.2, p<0.017): 2.9 fold
Suppression of asymmetric cell kinetics [3]: can suppress the asymmetric cell kinetics
Fraction of double-BrdU(+) Xs-D8 daughter pairs (Xs-D8 cells): 76%
